Test results: US8802655B2, “4-hydroxybenzomorphans” (Rensselaer Polytechnic Institute, priority 2004, dated 2014)
Read-outs that look alike come from different tables or passages of the source.

What was measured:
Format in all cases: binding
[1] = biological target: T1, κ opioid receptor (UniProt P41144)
T1 construct: rows headed: Ki (nM ± S.E.) [^3H]U69,593 (κ); other: radioligand [3H]U69,593
Method: (§1) The affinities of the compounds of the invention are determined by the method described in Wentland et al. [BioOrg.

[2] = biological target: T2, δ opioid receptor (UniProt A0A286XTF2); set-up: unit μM; conditions: radioligand [3H]Naltrindole
Method: as §1

[3] = biological target: μ opioid receptor (Homo sapiens, UniProt P35372); conditions: read-out: Ki (nM ± S.E.) [^3H]DAMGO (μ)
μ opioid receptor, sequence (P35372 whole entry): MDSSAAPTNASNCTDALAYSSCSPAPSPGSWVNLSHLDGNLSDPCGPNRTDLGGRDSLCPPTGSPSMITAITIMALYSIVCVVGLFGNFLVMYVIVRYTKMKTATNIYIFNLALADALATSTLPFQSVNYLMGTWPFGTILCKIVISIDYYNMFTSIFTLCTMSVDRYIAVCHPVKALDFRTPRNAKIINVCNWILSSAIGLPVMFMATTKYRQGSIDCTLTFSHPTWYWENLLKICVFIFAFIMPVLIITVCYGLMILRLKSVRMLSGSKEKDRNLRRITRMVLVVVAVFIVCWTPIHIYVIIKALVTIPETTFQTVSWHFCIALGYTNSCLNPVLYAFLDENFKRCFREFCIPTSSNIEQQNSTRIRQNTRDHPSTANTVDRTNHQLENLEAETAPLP
Method: as §1

[4] = biological target: T2, δ opioid receptor; conditions: read-out: Ki (nM ± S.E.) [^3H]Naltrindole (δ); radioligand [3H]Naltrindole
Method: as §1

[5] = read-out: Ki (nM ± S.E.) [^3H]U69,593 (κ); radioligand [3H]U69,593
[6] = radioligand [3H]U69,593; read-out: Ki (nM ± S.E.) [^3H]U69,593 (κ)
[7] = read-out: Ki (nM ± S.E.) [^3H]Naltrindole (δ)

SMILES	Ki [1, 5]	Ki ([2]; read-out: Ki [^3H]Naltrindole (δ), unit μM)	Ki [3]	Ki [1, 6]	Ki [2, 7]	Ki [4]
COc1ccc2c(c1O)[C@]13CCN(CC4CC4)[C@H](C2)[C@]1(O)CCC(=O)C3 [Sample 4, 3-methoxy-4-hydroxy-naltrexone]	12 ± 0.29 nM	> 10 µM	–	–	–	–
NC(=O)c1ccc2c(c1O)[C@]13CCN(CC4CC4)[C@H](C2)[C@]1(O)CCC(=O)C3 [Sample 3, 3-Carboxyamido-4-hydroxy-naltrexone]	–	–	0.052 ± 0.004 nM	0.23 ± 0.018 nM	0.0026 ± 0.00026 µM	–
COc1ccc2c(c1O)[C@]13CCN(C)[C@H](C2)[C@@H]1C=CC(=O)C3 [Sample 7, 3-Methoxy-4-hydroxy-6-oxo-morphine]	740 ± 25 nM	–	–	–	2 ± 0.08 µM	–
NC(=O)c1ccc2c(c1O)[C@]13CCN(CC4CCC4)[C@H](C2)[C@]1(O)CCC(=O)C3 [Sample 21, 3-Carboxamido-4-hydroxy-6-oxo-nalbuphine]	0.27 ± 0.013 nM	–	–	–	–	4.2 ± 0.36 nM
NC(=O)c1ccc2c3c1O[C@H]1C(=O)CC[C@@]4(O)[C@@H](C2)N(CC2CC2)CC[C@]314 [Sample 2, 3-Carboxyamido-naltrexone]	–	–	1.9 ± 0.21 nM	22 ± 0.85 nM	0.11 ± 0.0081 µM	–
NC(=S)c1ccc2c(c1O)[C@]13CCN(CC4CC4)[C@H](C2)[C@]1(O)CCC(=O)C3 [Sample 26, 3-Thiocarboxyamido-4-hydroxy-naltrexone]	5 ± 0.72 nM	–	–	–	0.14 ± 0.011 µM	–
COc1ccc2c(c1O)[C@]13CCN(C)[C@H](C2)[C@@H]1CCC(=O)C3 [Sample 8, 3-Methoxy-4-hydroxy-6-oxo-7,8-dihydro-morphine]	350 ± 8.5 nM	–	–	–	1.2 ± 0.065 µM	–
